# Laboratory results taken from patent US20250161408A1, “PEPTIDIC INHIBITORS OF AMYLOID SELF- AND CROSS-ASSEMBLY” (TECHNISCHE UNIVERSITÄT MÜNCHEN, priority 2022, published 2025).
# “Also recorded” adds a separate entry of the source. Non-standard residues stand in square brackets, D forms with d. Residues, ends and D or L forms follow the SMILES beside them. NMeF = CN[C@@H](Cc1ccccc1)C(=O)O; NMeV = CN[C@H](C(=O)O)C(C)C; Nle = CCCC[C@H](N)C(=O)O
# What was measured:
# proteinase K = assay: Proteinase K (PK) fibril digestion assay with dot blot; details: IAPP-related fibrils; 37° C.; dot blot with anti-fIAPP and anti-Aβ antibodies
# Protocol: Solutions made as above but w/o PK were used as controls for 100% undigested fibrils. Solutions were incubated at 37° C. and at indicated time points aliquots were dotted onto nitrocellulose membranes and spots were quickly dried by air. Membranes were washed (TBS-T) and blocked (5% milk in TBS-T, overnight (10° C.)). […] Primary antibodies were combined with goat anti-mouse-POD (1:1000) or donkey anti-rabbit-POD (1:5000); detection was as under “Cross-linking, NuPAGE and WB”.
# IAPP = biological target: T1, IAPP (Homo sapiens, UniProt P10997); assay: MTT reduction assay of IAPP-mediated cell damage in RIN5fm cells; assay type: cell-based
# T1 construct: made in house; host or cells: chemical synthesis (Fmoc-SPPS), air-oxidised, RP-HPLC purified
# T1 sequence (P10997 34-70 limits assumed): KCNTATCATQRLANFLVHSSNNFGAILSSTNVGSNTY
# Protocol: Briefly, cells were cultivated and platted in 96-well plates. Aliquots of solutions used for the ThT binding assays (see “ThT binding assays”) were diluted with cell medium at the indicated incubation time points (24 h or 7 days) and added to the cells at the indicated final concentrations. Following incubation with the cells for ˜20 h (37° C., humidified atmosphere, 5% CO2) cell damage was assessed by measuring cellular MTI reduction. IC50 values were determined.
# Aβ42 [1] = biological target: T2, Aβ42 (Homo sapiens, UniProt P05067); assay: cell-based; details: read-out: IC50 (±SD) of inhibitory effects of ACMs on Aβ42-mediated cell damage
# T2 construct: the 40(42)-residue peptide Aβ40(42); made in house; host or cells: chemical synthesis (Fmoc-SPPS), monomer isolated by SEC
# T2 sequence (P05067 672-713): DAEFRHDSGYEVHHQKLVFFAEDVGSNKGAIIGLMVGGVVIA
# Protocol: Following incubation with the cells for ˜20 h (37° C., humidified atmosphere, 5% CO2), cell damage was assessed by measuring cellular MTT reduction.
# Solutions were aged for 1.5 h (37° C., shaking 500 rpm). Aliquots were diluted with cell medium, incubated with PC12 cells at the indicated final concentrations for ˜20 h and cellular MTT reduction was measured as above.
# Aβ42 [2] = biological target: T2, Aβ42; assay: Fluorescence spectroscopic titration of FITC-Aβ42 with ACMs; details: read-out: app. KD (±SD) of ACM/Aβ42 interactions; N-terminal FITC-labelled Aβ42 5 nM, pH 7.4; means from three binding curves
# Protocol: Fluorescence spectroscopic studies were performed with a Jasco FP-6500 fluorescence spectrophotometer. Briefly, excitation was at 492 nm and spectra were measured between 500 and 600 nm. All titrations were performed in freshly made solutions of synthetic N-terminal fluorescently labeled peptide (5 nM) and various amounts of unlabeled peptide in 10 mM sodium phosphate buffer, pH 7.4 (1% HFIP) within 2-5 min following solution preparation. Under these experimental conditions, freshly made solutions of Fluos-IAPP and FITC-Aβ42 (5 nM) consist mostly of monomers and the same was found for Fluos-ACMs (5 nM) (FIG. 13e and data not shown). Apparent binding affinities (app. KDs) were estimated by using 1/1 binding models. However, due to the high self-assembly propensities of involved peptides more complex models might also apply. Determined app. KDs are means (±SD) from three binding curves derived from three independent titration assays.
# Aβ42 [3] = biological target: T2, Aβ42; assay: ThT binding assay of Aβ42 fibrillogenesis (self-assembly, seeding, cross-seeding); assay type: biochemical
# Protocol: Aβ42 fibrillogenesis-related studies. […] Peptide incubations were performed in the presence of ThT in 96-well black MTPs (FluoroNunc, Thermo Fisher Scientific). […] Values of seeds or buffer alone were subtracted from the data in self-/cross-seeding assays; all other data shown are raw data except for data in FIG. 27b which were normalized).
# Incubations (37° C.) and determination of ThT fluorescence were performed as for all other Aβ42-related studies.
# [4] = tested on: cultured murine BV2 microglia; assay: Phagocytosis of Aβ42 species with or without ACM; assay type: cell-based, mouse; details: 1/1, co-incubation 2 h
# Protocol: Briefly, BV2 cells were maintained in GlutaMAX-supplemented RPMI1640 medium containing 10% FBS and 1% penicillin/streptomycin on poly-L-ornithine-coated flasks. For the phagocytosis assay, BV2 cells were seeded into 24-well plates containing coverslips in serum-free RPMI1640-GlutaMAX and further incubated for 24 h (5% CO2, 37° C.) to reach 10000 cells/well. Primary BMDMs were obtained from bone-marrow monocytes isolated from wildtype C57BL/6 mice, plated in 24-well plates at a density of 10000cells/well, and differentiated with L929 cell-conditioned medium (RPMI1640, 10% FBS, 1% penicillin/streptomycin) for 7 days. Thereafter, cells were incubated with aged peptide solutions at 37° C. for 6 h. […]
# Following incubation of the cells with the peptides, supernatants were removed and cells on the coverslips were washed 5 times with ice-cold 1×PBS, fixed with 4% paraformaldehyde, washed with 1×PBS, permeabilized with 0.2% Triton-X 100, and rinsed three times with cold 1×PBS. […] Images were acquired using a Leica DMi8 fluorescence microscope. The percentage of cells that had taken up peptides was calculated by dividing the number of BV2 cells or BMDMs that phagocytosed TAMRA-labeled peptide by the total cell count, multiplied by 100. Significance was analyzed by unpaired student's t-test.
Structure (SMILES),Time to degradation by proteinase K (proteinase K),"Effect of addition to preformed fIAPP on fIAPP cytotoxicity (MTT reduction) (IAPP; RIN5fm cells, ACM 33 μM added to fIAPP […], 1 day, fIAPP 500 nM)","Effect on formation of cytotoxic IAPP assemblies (MTT reduction) (IAPP; RIN5fm cells, aged (24 h or 7 days) IAPP/peptide 1/2 solutions)",IC50 (IAPP; read-out: IC50 (±SD) of inhibitory effects of ACMs on IAPP-mediated cell damage) [nM],IC50 (Aβ42 [1]) [nM],Kd (Aβ42 [2]) [nM],"Effect of addition to preformed toxic Aβ42 oligomers on fibrillogenesis (ThT binding) (Aβ42 [3]; 2 h-aged Aβ42, 1/1)","Effect of addition to already nucleated Aβ42 fibrillogenesis (ThT binding) (Aβ42 [3]; Aβ42 5 μM, post-nucleation addition)",Effect of addition to TAMRA-oAβ42 on Aβ42 phagocytosis [4]
CC[C@H](C)[C@H](NC(=O)[C@H](C)NC(=O)CNC(=O)[C@H](Cc1ccccc1)NC(=O)[C@H](CC(N)=O)NC(=O)[C@H](CC(N)=O)NC(=O)[C@H](CO)NC(=O)[C@H](CO)NC(=O)[C@H](Cc1c[nH]cn1)NC(=O)[C@@H](NC(=O)[C@H](CC(C)C)NC(=O)[C@H](Cc1ccccc1)NC(=O)[C@H](CC(N)=O)NC(=O)[C@H](C)NC(=O)[C@H](CC(C)C)NC(=O)[C@H](CCCNC(=N)N)NC(=O)[C@H](CCC(N)=O)NC(=O)[C@@H](NC(=O)[C@H](C)NC(=O)[C@@H]1CSSC[C@H](NC(=O)[C@@H](N)CCCCN)C(=O)N[C@@H](CC(N)=O)C(=O)N[C@@H]([C@@H](C)O)C(=O)N[C@@H](C)C(=O)N[C@@H]([C@@H](C)O)C(=O)N1)[C@@H](C)O)C(C)C)C(=O)N[C@@H](CC(C)C)C(=O)N[C@@H](CO)C(=O)N[C@@H](CO)C(=O)N[C@H](C(=O)N[C@@H](CC(N)=O)C(=O)N[C@H](C(=O)NCC(=O)N[C@@H](CO)C(=O)N[C@@H](CC(N)=O)C(=O)N[C@H](C(=O)N[C@@H](Cc1ccc(O)cc1)C(N)=O)[C@@H](C)O)C(C)C)[C@@H](C)O [IAPP],at least 30 h,,,,,,,,
CCCC[C@H](NC(=O)[C@H](CC(=O)O)NC(=O)[C@H](CCC(=O)O)NC(=O)[C@H](C)NC(=O)[C@H](Cc1ccccc1)N(C)C(=O)[C@H](Cc1ccccc1)NC(=O)[C@H](C(C)C)N(C)C(=O)[C@H](CC(C)C)NC(=O)[C@H](CCCCN)NC(=O)[C@@H](N)CCC(N)=O)C(=O)N[C@@H](CCCC)C(=O)N[C@@H](CCCC)C(=O)N[C@@H](CC(N)=O)C(=O)N[C@@H](CCCCN)C(=O)NCC(=O)N[C@@H](C)C(=O)N[C@H](C(=O)N[C@H](C(=O)NCC(=O)N[C@@H](CC(C)C)C(=O)N[C@@H](CCCC)C(=O)N[C@H](C(=O)NCC(=O)NCC(=O)N[C@H](C(=O)N[C@H](C(=O)O)C(C)C)C(C)C)C(C)C)[C@@H](C)CC)[C@@H](C)CC [Nle3-VF] (H-QKL[NMeV]F[NMeF]AED[Nle][Nle][Nle]NKGAIIGL[Nle]VGGVV-OH),,does not affect fIAPP cytotoxicity,fully suppressed; also recorded: suppress formation of toxic IAPP assemblies,65,367,14.5 ± 8,delay of fibrillogenesis,does not affect amounts of already formed ThT-positive fibrils,increased Aβ42 phagocytosis
